Measured values taken from US20160106102A1, “KNOWN AND NEW HETEROCYCLIC COMPOUNDS AS PEST CONTROL AGENTS” (BAYER CROPSCIENCE AKTIENGESELLSCHAFT, priority 2013, published 2016).
“And” between values parts separate entries of the source, which are not always exact repeats. Equal entries are not always repeated. Where two headings read alike, the source gives them in different places.

Legend:
Myzus persicae [1] = test: Myzus persicae - sachet test; format: in vivo; details: 100% = all animals killed; for pest or weed control at 6 ppm / pest or weed control at 30 ppm: Myzus persicae, read-out: efficacy (kill in %)
Method in brief: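 Active ingredient dissolved with 2% N-methylpyrrolidone and 2% diacetone alcohol, diluted in water, then pipetted into nutrient medium. Plate sealed and paired with a plate carrying green peach aphids. Kill in % scored after the set time (100% = all dead, 0% = none dead).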

[2] = log P determination by LC-MS in the acidic range; format: physicochemical; details: for log P (acid): LC-MS in the acidic range
Excerpt: The LC-MS determination in the acidic range is effected at pH 2.7 using 0.1% aqueous formic acid and acetonitrile (contains 0.1% formic acid) as eluents, linear gradient from 10% acetonitrile to 95% acetonitrile. Alternatively, the determination is effected in the acidic range at pH 2.3 using 0.1% aqueous phosphoric acid and acetonitrile as eluents; linear gradient from 10% acetonitrile to 95% acetonitrile.

Myzus persicae [3] = test: Myzus persicae - spray test; format: in vivo; details: application rate of 500 g/ha, after 6 days, sprayed Chinese cabbage leaf discs infested by all stages, 100% = all aphids killed; for pest or weed control at 500 g/ha: Myzus persicae, foliar, 144 h, read-out: efficacy in %
Protocol: Myzus persicae—spray test Solvent: 78 parts by weight of acetone • • 1.5 parts by weight of dimethylformamide Emulsifier: 0.5 part by weight of alkylaryl polyglycol ether To produce an appropriate active ingredient formulation, 1 part by weight of active ingredient is mixed with the specified amounts of solvent and emulsifier, and the concentrate is diluted to the desired concentration with emulsifier-containing water. Discs of Chinese cabbage leaves (Brassica pekinensis) infested by all stages of the green peach aphid (Myzus persicae) are sprayed with an active ingredient formulation of the desired concentration. After 6 days, the efficacy in % is determined. 100% means that all the aphids have been killed; 0% means that no aphids have been killed.

[4] = application rate of 6 ppm in nutrient medium
[5] = application rate of 30 ppm in nutrient medium
[6] = pH 2.7, LC-MS in the acidic range, read-out: log P (acid)
[7] = pH 2.7, values given in the synthesis examples and NMR lists, read-out: HPLC-MS: log P

SMILES | efficacy (kill in %) (Myzus persicae [1]; [4]) [%] | efficacy (kill in %) (Myzus persicae [1]; [5]) [%] | log P (acid) [2] | efficacy in % (Myzus persicae [3]) | pest or weed control at 6 ppm (Myzus persicae [1]; [4]) [%] | pest or weed control at 30 ppm (Myzus persicae [1]; [5]) [%] | chromatographic logP [2, 6] | chromatographic logP [2, 7] | pest or weed control at 500 g/ha (Myzus persicae [3]) [%]
Cc1cc(NC(=O)c2cccnc2)nn1C(C)C#N (stereo not drawn) [Compound I-1-214] | 100 | 100 | 0.92 | 100% |  |  |  |  | 
O=C(Nc1ccn(Cc2ccccn2)n1)c1cccnc1 [Compound I-1-26] | 100 | 100 | 0.57 | 90% |  |  |  |  | 
O=C(Nc1cc(Br)n(Cc2ncccn2)n1)c1cccnc1 [Compound I-1-140, N-[5-Bromo-1-(pyrimidin-2-ylmethyl)-1H-pyrazol-3-yl]nicotinamide] |  |  |  |  | 100 | 100 | 1.1 | 1.1 | 90
Cc1cc(NC(=O)c2cccnc2)nn1Cc1ccccc1 [Compound I-1-46] | 100 | 100 | 1.79 | 100% and 90% |  |  |  |  | 
COC(=O)C(C)(C)NC(=O)Cn1nc(NC(=O)c2cccnc2)cc1C [Compound I-1-32] | 100 | 100 | 0.72 | 90% |  |  |  |  | 
Cc1cc(NC(=O)c2cccnc2)nn1Cc1ncccn1 [Compound I-1-1] | 100 | 100 | 0.77 | 90% |  |  |  |  | 
Cc1cc(NC(=O)c2cccnc2)nn1Cn1nc(C)n(C)c1=O [Compound I-1-143] | 100 | 100 | 0.72 | 90% |  |  |  |  | 
Cn1ccc(NC(=O)c2cccnc2)n1 [Compound I-1-198] | 100 | 100 | 0.22 | 90% |  |  |  |  | 
Cc1cc(NC(=O)c2cccnc2)nn1C(=O)OCC(F)(F)F [Compound I-1-259] | 100 | 100 | 1.79 | 90% |  |  |  |  | 
CCOCn1nc(NC(=O)c2cccnc2)cc1C [Compound I-1-2] | 100 | 100 | 1.1 | 100% |  |  |  |  | 
Cc1cc(NC(=O)c2cccnc2)nn1Cc1nn(C)c(=O)n1C [Compound I-1-153] | 100 | 100 | 0.62 | 100% |  |  |  |  | 
Cc1cc(NC(=O)c2cccnc2)nn1C(=O)NC1CC1 [Compound I-1-312] | 100 | 100 | 1.27 | 90% |  |  |  |  | 
Cc1cc(NC(=O)c2cccnc2)nn1CC(C)C [Compound I-1-12] | 100 | 100 | 1.59 | 80% |  |  |  |  | 
CC[S+]([O-])CCn1nc(NC(=O)c2cccnc2)cc1C (stereo not drawn) [Compound I-1-190] | 100 | 100 | 0.46 | 100% |  |  |  |  | 
Cc1cc(NC(=O)c2cccnc2)nn1Cc1ncccc1C#N [Compound I-1-20] | 100 | 100 | 1.08 | 90% |  |  |  |  | 
Cc1cc(NC(=O)c2cccnc2)nn1Cc1ccc(Cl)s1 [Compound I-1-297] |  | 100 | 2.07 | 90% |  |  |  |  | 
Cc1cc(NC(=O)c2cccnc2)nn1Cc1nc2ccc(Cl)cc2o1 [Compound I-1-342] | 100 | 100 | 1.82 | 90% |  |  |  |  | 

SMILES | efficacy (kill in %) (Myzus persicae [1]; [4]) [%] | efficacy (kill in %) (Myzus persicae [1]; [5]) [%] | log P (acid) [2] | efficacy in % (Myzus persicae [3]) | pest or weed control at 6 ppm (Myzus persicae [1]; [4]) [%] | pest or weed control at 30 ppm (Myzus persicae [1]; [5]) [%] | chromatographic logP [2, 6] | chromatographic logP [2, 7] | pest or weed control at 500 g/ha (Myzus persicae [3]) [%]
Cc1cc(NC(=O)c2cccnc2)nn1S(C)(=O)=O [Compound I-1-277] | 100 | 100 | 1.03 | 100% |  |  |  |  | 
Cc1cc(NC(=O)c2cccnc2)nn1CC(F)F [Compound I-1-4] | 100 | 100 | 1.05 | 100% |  |  |  |  | 
Cc1cc(N(C)C(=O)c2cccnc2)nn1C [Compound I-1-16] |  | 100 | 0.65 | 90% |  |  |  |  | 
C#CCn1nc(NC(=O)c2cccnc2)cc1C [Compound I-1-19] | 100 | 100 | 0.93 | 100% |  |  |  |  | 
Cc1cc(NC(=O)c2cccnc2)nn1-c1ncccn1 [Compound I-1-23, N-[5-Methyl-1-(pyrimidin-2-yl)-1H-pyrazol-3-yl]nicotinamide] |  |  |  |  | 100 | 100 | 1.16 | 1.14 | 100
Cc1cc(NC(=O)c2cccnc2)nn1Cn1ccc(C(F)(F)F)n1 [Compound I-1-228] | 100 | 100 | 1.86 | 90% |  |  |  |  | 
Cc1c(Cl)c(NC(=O)c2cccnc2)nn1Cc1ncccn1 [Compound I-1-212] | 100 | 100 | 0.94 | 90% |  |  |  |  | 
Cn1nc(NC(=O)c2cccnc2)c2cccnc21 [Compound I-1-39] | 100 | 100 | 0.78 | 90% |  |  |  |  | 
Cc1cc(NC(=O)c2cccnc2)nn1Cn1nccc1C(F)(F)F [Compound I-1-227] | 100 | 100 | 1.72 | 90% |  |  |  |  | 
COC(=O)n1nc(NC(=O)c2cccnc2)cc1C [Compound I-1-126] | 100 | 100 | 1.08 | 90% |  |  |  |  | 
CCS(=O)(=O)N(C)C(=O)n1nc(NC(=O)c2cccnc2)cc1C [Compound I-1-289] | 100 | 100 | 1.5 | 90% |  |  |  |  | 
Cc1cc(NC(=O)c2cccnc2)nn1-c1cnccn1 [Compound I-1-55] |  | 100 | 1.27 | 80% |  |  |  |  | 
Cc1cc(NC(=O)c2cccnc2)nn1CC[S+](C)[O-] (stereo not drawn) [Compound I-1-183] | 100 | 100 | 0.25 | 90% |  |  |  |  | 
Cn1nc(NC(=O)c2cccnc2)cc1C(F)F [Compound I-1-221] | 100 | 100 | 1.04 | 90% |  |  |  |  | 
Cc1cc(NC(=O)c2cccnc2)nn1Cc1cscn1 [Compound I-1-295] | 100 | 100 | 0.95 | 100% |  |  |  |  | 
Cc1cc(NC(=O)c2ccc[n+]([O-])c2)nn1Cc1ncccn1 [Compound I-1-128] | 100 | 100 | 0.55 | 90% |  |  |  |  | 
Cc1cc(NC(=O)c2cccnc2)nn1-c1ncccc1Cl [Compound I-1-34] | 100 | 100 | 1.35 | 100% |  |  |  |  | 
